{
  "source": "patent US11337932B2",
  "about": "“Transdermal therapeutic system containing asenapine and polysiloxane or polyisobutylene” (LTS LOHMANN Therapie-Systeme AG, priority 2016, dated 2022)",
  "origin": "cited, not measured here",
  "key": {"[1]": {"target": "serotonin 5-HT2A receptors (Homo sapiens, UniProt P28223)", "sequence (P28223 whole entry)": "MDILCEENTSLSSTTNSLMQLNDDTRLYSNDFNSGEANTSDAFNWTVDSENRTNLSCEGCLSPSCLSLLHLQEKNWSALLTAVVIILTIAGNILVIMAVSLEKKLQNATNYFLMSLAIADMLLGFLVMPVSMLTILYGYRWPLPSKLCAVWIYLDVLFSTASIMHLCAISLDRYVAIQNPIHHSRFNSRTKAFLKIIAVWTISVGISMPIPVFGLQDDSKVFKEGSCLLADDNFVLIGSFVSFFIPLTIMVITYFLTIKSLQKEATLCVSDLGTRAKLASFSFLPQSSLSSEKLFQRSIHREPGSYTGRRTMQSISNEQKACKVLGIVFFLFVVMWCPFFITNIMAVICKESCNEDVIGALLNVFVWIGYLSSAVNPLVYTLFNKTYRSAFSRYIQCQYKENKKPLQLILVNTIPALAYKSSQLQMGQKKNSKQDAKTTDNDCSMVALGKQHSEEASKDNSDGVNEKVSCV", "details": "background statement; antagonist at dopamine D2 and serotonin 5-HT2A receptors"}, "[2]": {"details": "if ingested"}},
  "data": [
    {"compound": "CN1C[C@H]2c3ccccc3Oc3ccc(Cl)cc3[C@@H]2C1", "note": "(relative stereo) [asenapine, (3aRS,12bRS)-rel-5-chloro-2,3,3a,12b-tetrahydro-2-methyl-1H-dibenz[2,3:6,7]oxepino[4,5-c]pyrrole]", "values": [
      {"measurement": "affinity", "setting": "[1]", "value": "high affinity"},
      {"measurement": "bioavailability", "setting": "[2]", "value": "< 2", "unit": "%"}
    ]}
  ]
}
